pIC50: −log10 of the molar value.
Key:
cPLA2 = biological target: T1, cPLA2 (Homo sapiens, UniProt P47712); test: cPLA2 Inhibitory activity (release of radiolabelled fatty acid from liposomes); assay type: biochemical; settings: 50 mM HEPES pH 7.4, 1 mM CaCl2, 2.5 μM radio-labeled phosphatidylcholine, 15 min at 37° C; read-out: cPLA2 Inhibition Activity IC50
T1 sequence (P47712 1-749): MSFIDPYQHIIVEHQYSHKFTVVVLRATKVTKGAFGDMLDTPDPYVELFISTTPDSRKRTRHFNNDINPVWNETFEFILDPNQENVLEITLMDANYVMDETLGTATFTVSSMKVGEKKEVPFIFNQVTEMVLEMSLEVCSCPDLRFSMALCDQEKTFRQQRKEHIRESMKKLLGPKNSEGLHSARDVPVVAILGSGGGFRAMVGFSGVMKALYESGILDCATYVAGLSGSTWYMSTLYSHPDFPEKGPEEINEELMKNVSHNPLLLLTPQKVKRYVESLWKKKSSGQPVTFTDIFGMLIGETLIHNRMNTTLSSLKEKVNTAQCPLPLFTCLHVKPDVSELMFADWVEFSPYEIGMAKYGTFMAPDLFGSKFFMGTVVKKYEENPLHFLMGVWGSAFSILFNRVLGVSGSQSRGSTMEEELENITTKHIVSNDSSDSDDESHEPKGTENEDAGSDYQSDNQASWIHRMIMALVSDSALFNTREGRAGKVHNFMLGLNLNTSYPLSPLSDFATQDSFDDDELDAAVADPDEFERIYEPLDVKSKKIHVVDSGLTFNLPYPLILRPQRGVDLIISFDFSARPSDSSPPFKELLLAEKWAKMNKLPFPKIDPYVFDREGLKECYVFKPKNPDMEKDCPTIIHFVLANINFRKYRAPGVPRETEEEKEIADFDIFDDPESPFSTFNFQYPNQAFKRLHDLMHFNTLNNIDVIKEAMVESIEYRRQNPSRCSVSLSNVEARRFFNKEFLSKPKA
Method: Experiment 1 cPLA2 Inhibitory activity
The compounds of the present invention was tested for the cPLA2 inhibitory activity by a method known in a literature (R. M. Kramer, E. F. Roberts, J. Manetta and J. E. Putnam, J. Biol. Chem., 268(8), 5268-5272 ([…])), as outlined below.
As a substrate, liposomes which contain 1-palmitoyl-2-[^14 C]-arachidonoyl-sn-glycero-3-phosphocholine and sn-1,2-dioleoylglycerol at the ratio of 2:1 and have treated ultrasonically were used. The substrate was added to a 50 mM HEPES buffer (pH 7.4) (200 μl) containing 1 mM CaCl2, 2 mM dithiothreitol, 150 mM NaCl, 0.1 mg/ml BSA so as to make the concentration of radio-labeled phosphatidylcholine 2.5 μM. To the solution was added a compound of the present invention in DMSO (10 μl) to obtain reaction solutions each containing the test compound at 250 μM, 50 μM, 10 μm, 2 μM, and 0.4 μM. The reaction was allowed to start by adding an enzyme (cPLA2) (4 ng) and continued for 15 min at 37° C.
The amount of fatty acids released by the reaction was measured on a liquid scintillation counter. Control was obtained by conducting the experiment in the same manner except that a compound of the present invention was not added. The inhibitory activity was expressed as percent (%) to the control value, which was used for the calculation of the concentration required for 50% inhibition (IC50, μM).

[1] = test system: Prostaglandin E2 production in human fibroblasts; test: Inhibition of Production of Prostaglandin E2 in Human Fibroblasts (IL-1 stimulated); assay type: cell-based; settings: Fibroblast, stimulation with IL-1, read-out: Inhibitory activity Against the Production of Prostaglandin E2 in Human Fibroblasts IC50
Method: Experiment 2 Inhibition of Production of Prostaglandin E2 in Human Fibroblasts
From this viewpoint, the compounds of the present invention were tested for the effect on the production of prostaglandin E2 by human fibroblasts under the stimulation with IL-1 according to the method of J. M. Dayer et al (CACHECTIN/TUMOR NECROSIS FACTOR STIMULATES COLLAGENASE AND PROSTAGLANDIN E2 PRODUCTION BY HUMAN SYNOVIAL CELLS AND DERMAL FIBROBLASTS; J. M. Dayer, B. Beutlerm and A. Cerami, J. Exp. Med., 162,2163-2168, 1985).

Row | SMILES | pIC50 (cPLA2) | pIC50 [1]
1 | CS[C@H]1C[C@@H](C(=O)Nc2ccc(C=C3SC(=S)NC3=O)cc2)N(C(=O)c2ccc(-c3ccccc3)cc2)C1 [Compound A-21] | 4.74 | 6.00
2 | O=C1NC(=S)SC1=Cc1ccc(NC(=O)[C@@H]2C[C@H](SCc3ccccc3)CN2C(=O)c2cccnc2)cc1 [Compound A-23] | 5.00 | 5.07
3 | O=C1NC(=S)SC1=Cc1ccc(NC(=O)[C@@H]2C[C@H](SCc3ccccc3)CN2C(=O)c2ccncc2)cc1 [Compound A-24] | 5.04 | 5.31
4 | CS[C@H]1C[C@@H](C(=O)Nc2ccc(C=C3SC(=O)NC3=O)cc2)N(C(=O)Cc2ccc(Br)cc2)C1 [Compound A-25] | 4.74 | 5.10
5 | CS[C@H]1C[C@@H](C(=O)Nc2ccc(C=C3SC(=S)NC3=O)cc2)N(C(=O)Cc2ccc(Br)cc2)C1 [Compound A-26] | 5.55 | 5.74
6 | CC(C)S[C@H]1C[C@@H](C(=O)Nc2ccc(C=C3SC(=S)NC3=O)cc2)N(C(=O)Cc2ccc(Br)cc2)C1 [Compound A-27] | 5.29 | 5.59
7 | O=C1NC(=S)SC1=Cc1ccc(NC(=O)[C@@H]2C[C@H](SCc3ccccc3)CN2C(=O)Nc2ccccc2)cc1 [Compound A-28] | 5.08 | 6.14
8 | O=C1NC(=S)SC1=Cc1ccc(NC(=O)[C@@H]2C[C@H](SCc3ccccc3)CN2C(=S)Nc2ccccc2)cc1 [Compound A-29] | 5.23 | 5.92
9 | CCCCNC(=O)N1C[C@@H](SCc2ccccc2)C[C@H]1C(=O)Nc1ccc(C=C2SC(=S)NC2=O)cc1 [Compound A-30] | 4.80 | 6.29
10 | CC(=O)Nc1c(Cl)cc(S(=O)(=O)N2C[C@@H](SCc3ccccc3)C[C@H]2C(=O)Nc2ccc(/C=C3\SC(=S)NC3=O)cc2)cc1Cl [Compound A-37] | 5.80 | 5.16
11 | CC(=O)Nc1ccc(S(=O)(=O)N2C[C@@H](SCc3ccccc3)C[C@H]2C(=O)Nc2ccc(/C=C3\SC(=S)NC3=O)cc2)cc1 [Compound A-38] | 5.19 | 5.31
12 | CC(C)(C)c1ccc(S(=O)(=O)N2C[C@@H](SCc3ccccc3)C[C@H]2C(=O)Nc2ccc(/C=C3\SC(=S)NC3=O)cc2)cc1 [Compound A-39] | 5.21 | 5.22
13 | CS[C@H]1C[C@@H](C(=O)Nc2ccc(/C=C3\SC(=O)NC3=O)cc2)N(S(=O)(=O)c2c(Cl)cccc2Cl)C1 [Compound A-40] | 4.82 | 5.11
14 | O=C1NC(=S)S/C1=C\c1ccc(NC(=O)[C@@H]2C[C@H](SCc3ccccc3)CN2S(=O)(=O)c2c(Cl)cccc2Cl)cc1 [Compound A-41] | 5.47 | 4.85
15 | O=C1NC(=O)/C(=C/c2ccc(NC(=O)[C@@H]3C[C@H](SCc4ccccc4)CN3S(=O)(=O)c3ccc(-c4ccccc4)cc3)cc2)S1 [Compound A-42] | 4.85 | 5.42
16 | O=C1NC(=S)S/C1=C\c1ccc(NC(=O)[C@@H]2C[C@H](SCc3ccccc3)CN2S(=O)(=O)c2ccc(-c3ccccc3)cc2)cc1 [Compound A-43] | 5.17 | 5.06
17 | CS[C@H]1C[C@@H](C(=O)Nc2ccc(/C=C3\SC(=O)NC3=O)cc2)N(S(=O)(=O)c2ccc(-c3ccccc3)cc2)C1 [Compound A-44] | 5.13 | 5.82
18 | CS[C@H]1C[C@@H](C(=O)Nc2ccc(/C=C3\SC(=S)NC3=O)cc2)N(S(=O)(=O)c2ccc(-c3ccccc3)cc2)C1 [Compound A-45] | 5.32 | 5.82
19 | COc1cc(CS[C@H]2C[C@@H](C(=O)Nc3ccc(/C=C4\SC(=O)NC4=O)cc3)N(S(=O)(=O)c3ccc(-c4ccccc4)cc3)C2)cc(OC)c1OC [Compound A-46] | 5.15 | 5.82
20 | O=C1NC(=S)S/C1=C\c1ccc(NC(=O)[C@@H]2C[C@H](SCc3ccccc3)CN2S(=O)(=O)c2ccc(Cc3ccccc3)cc2)cc1 [Compound A-48] | 5.31 | 5.06
21 | CN(C)c1cccc2c(S(=O)(=O)N3C[C@@H](SCc4ccccc4)C[C@H]3C(=O)Nc3ccc(/C=C4\SC(=S)NC4=O)cc3)cccc12 [Compound A-52] | 5.25 | 5.54
22 | O=C1NC(=S)S/C1=C\c1ccc(NC(=O)[C@@H]2C[C@H](SCc3ccccc3)CN2S(=O)(=O)Cc2ccc(Br)cc2)cc1 [Compound A-54] | 5.47 | 5.96
23 | O=C1NC(=S)S/C1=C\c1ccc(NC(=O)[C@@H]2C[C@H](SCc3ccccc3)CN2S(=O)(=O)Cc2ccc(F)cc2)cc1 [Compound A-55] | 5.47 | 5.96
24 | N#CCCCOc1ccc(CS[C@H]2C[C@@H](C(=O)Nc3ccc(/C=C4\SC(=S)NC4=O)cc3)N(S(=O)(=O)Cc3ccc(Br)cc3)C2)cc1 [Compound A-56] | 5.72 | 6.03
25 | O=C1NC(=S)S/C1=C\c1cn(NC(=O)[C@@H]2C[C@H](SCc3ccccc3)CN2C(=O)c2ccccc2)c2ccccc12 [Compound A-60] | 5.21 | 5.89
26 | O=C1NC(=S)O/C1=C\c1cn(NC(=O)[C@@H]2C[C@H](SCc3ccccc3)CN2C(=O)c2ccccc2)c2ccccc12 [Compound A-61] | 5.80 | 5.00
27 | CC(C)(C)OC(=O)N1C[C@@H](SC(c2ccccc2)(c2ccccc2)c2ccccc2)C[C@H]1C(=O)Nc1ccc(/C=C2\OC(=S)NC2=O)cc1 [Compound A-62] | 5.37 | 5.66

Further lines, with some results ahead:

Row | pIC50 (cPLA2) | SMILES | pIC50 [1]
28 | 6.09 | O=C1NC(=O)/C(=C/c2ccc(C(=O)NC[C@@H]3C[C@H](SC(c4ccccc4)(c4ccccc4)c4ccccc4)CN3C(=O)CCc3ccccc3)cc2)S1 [Compound B-1] | 5.12
29 | 5.92 | COc1ccc(COC(=O)N2C[C@@H](SCc3cc(C(C)(C)C)c(OC)c(C(C)(C)C)c3)C[C@H]2CNC(=O)c2ccc(/C=C3\SC(=O)NC3=O)cc2)cc1 [Compound B-3] | 5.68
30 | 5.62 | O=C1NC(=O)/C(=C/c2ccc(C(=O)NC[C@@H]3C[C@H](SC(c4ccccc4)(c4ccccc4)c4ccccc4)CN3C(=O)OCc3ccc([N+](=O)[O-])cc3)cc2)S1 [Compound B-4] | 5.34
31 | 5.66 | COC(=O)c1ccc(CS[C@H]2C[C@@H](CNC(=O)c3ccc(/C=C4\SC(=S)NC4=O)cc3)N(C(=O)c3ccccc3)C2)cc1 [Compound B-5] | 5.70
32 | 4.51 | NC(=O)c1ccc(CS[C@H]2C[C@@H](CNC(=O)c3ccc(/C=C4\SC(=S)NC4=O)cc3)N(C(=O)c3ccccc3)C2)cc1 [Compound B-6] | 5.33
33 | 5.01 | O=C1NC(=O)C(=Cc2ccc(S(=O)(=O)NC[C@@H]3C[C@H](SCc4ccccc4)CN3C(=O)c3ccccc3)cc2)S1 [Compound B-7] | 5.44
34 | 4.52 | CS[C@H]1C[C@@H](C(=O)Nc2ccccc2/C=C2\SC(=O)NC2=O)N(S(=O)(=O)c2ccc(-c3ccccc3)cc2)C1 [Compound C-1] | 5.21
35 | 5.49 | COC(=O)c1cc(C=C2SC(=O)NC2=O)cc(NC(=O)C2CC(OC(c3ccccc3)c3ccccc3)CN2C(=O)c2ccccc2)c1 (centres unmarked) [Compound C-4] | 5.70
36 | 5.01 | COC(=O)CCc1cc(C=C2SC(=O)NC2=O)cc(NC(=O)C2CC(OC(c3ccccc3)c3ccccc3)CN2C(=O)c2ccccc2)c1 (centres unmarked) [Compound C-5] | 5.92
37 | 4.89 | O=C1NC(=O)C(=Cc2cc(CCCO)cc(NC(=O)C3CC(OC(c4ccccc4)c4ccccc4)CN3C(=O)c3ccccc3)c2)S1 (centres unmarked) [Compound C-6] | 5.64

Source: US5955616A, “Pyrrolidine derivatives having phospholipase A2 inhibitory activity” (Shionogi & Co., Ltd., priority 1995, dated 1999)
